# Measured values reported in US20170058314A1, “NOVEL METHODOLOGY FOR IDENTIFYING ANTI-PERSISTER ACTIVITY AND ANTIMICROBIAL SUSCEPTIBILITY FOR BORRELIA BURGDORFERI AND OTHER BACTERIA” (priority 2014, published 2017).
# Tests used:
# [1] = system: round body form of B. burgdorferi; experiment: SYBR Green I/PI assay on amoxicillin-induced round body form
# [2] = system: stationary phase B. burgdorferi; experiment: Subculture test of drug-treated stationary phase B. burgdorferi; format: cell-based, Borrelia burgdorferi
# Procedure: Seven-day-old B. burgdorferi culture (1×10^7 spirochetes/mL) (500 μL) was treated with drugs or drug combinations in Eppendorf tubes. After incubation at 33° C. for 7 days without shaking, the cells were collected by centrifugation and rinsed with 1 mL fresh BSK-H medium followed by resuspension in 500 μL fresh BSK-H medium without antibiotics. Then 50 μL of cell suspension was transferred to 1 mL fresh BSK-H medium for subculture at 33° C. for 2 weeks. Cell proliferation was assessed using SYBR Green I/PI assay and bacterial counting chamber (Hausser Scientific Partnership) by microscopy as described above.
# [3] = system: stationary phase B. burgdorferi persisters (strain B31); experiment: NCI compound library screen, SYBR Green I/PI assay (plate reader)
# [4] = system: B. burgdorferi log and stationary phase cultures; experiment: epi-fluorescence microscope counting after antibiotic exposure (persister frequency, planktonic forms); format: cell-based, Borrelia burgdorferi
# Procedure: Specimens were examined on a Nikon Eclipse E800 microscope equipped with differential interference contrast (DIC) and epi-fluorescence illumination, and recorded with a Spot slider color camera. Cell proliferation assays were performed by direct counting using a bacterial counting chamber (Hausser Scientific Partnership) and DIC microscopy. SYBR Green I/PI assay was performed to assess the viability of B. burgdorferi. The ratio of live (green) and dead (red) B. burgdorferi was calculated by counting these cells using a bacterial counting chamber and epi-fluorescence microscopy. The three representative images of every sample were captured for quantitative analysis. Image Pro-Plus software was applied for measuring the biomass (fluorescence intensity) of different forms (spirochetes, round body, and microcolony) of B. burgdorferi as previously described (Shopov and Williams, 2000).
# (§1) To qualitatively determine the effect of antibiotics, 10 μL of each compound from the pre-diluted plate or pre-diluted stock was added to stationary phase B. burgdorferi culture in the 96-well plate. The final volume per well was adjusted to 100 μL at a concentration of 10 μg/mL for each antibiotic. Plates were sealed and placed in a 33° C. incubator for 7 days. The SYBR Green I/PI viability assay was used to assess the live and dead cells after antibiotic exposure as described (Feng, Wang, Shi, et al., 2014). Briefly, 10 μL of SYBR Green I (10,000×stock, Invitrogen) was mixed with 30 μL propidium iodide (PI, 20 mM) into 1.0 mL of sterile dH2O. Then, 10 μL of staining mixture was added to each well and mixed thoroughly. The plates were incubated at room temperature in the dark for 15 minutes followed by plate reading at excitation wavelength at 485 nm and the fluorescence intensity at 535 nm (green emission) and 635 nm (red emission) in microplate reader (HTS 7000 plus Bio Assay Reader, PerkinElmer Inc., USA). With least-square fitting analysis, the regression equation and regression curve of the relationship between percentage of live bacteria and green/red fluorescence ratios was obtained. The regression equation was used to calculate the percentage of live cells in each well of the 96-well plate.
# Therefore, the frequency of B. burgdorferi persisters in log phase and stationary phase cultures was assessed using the SYBR Green I/PI viability assay after exposure of the cultures to antimicrobials. E. coli culture was used as a control after exposure to antibiotics to validate the SYBR Green I/PI viability assay for persister frequency assessment.
# [5] = system: log phase and stationary phase B. burgdorferi culture; experiment: Antibiotic exposure assay, SYBR Green I/PI (drugs alone and combinations); settings: Borreliella burgdorferi, 168 h, read-out: Live Cell % (residual viable B. burgdorferi), ten-day-old stationary phase culture enriched with micro-colonies, 10 μg/mL each drug, 7 days
# Procedure: as §1
# To qualitatively determine the effect of antibiotics, 10 μL of each compound (final concentration 50 μM) from the pre-diluted plate or pre-diluted stock was added to round body form or stationary phase B. burgdorferi culture in the 96-well plate. The final volume per well was adjusted to 100 μL. Plates were sealed and placed in a 33° C. incubator for 7 days. The SYBR Green I/PI viability assay was used to assess the live and dead cells after antibiotic exposure as described (Feng, Wang, Shi, et al., 2014). Briefly, 10 μL of SYBR Green I (10,000×stock, Invitrogen) was mixed with 30 μL propidium iodide (PI, 20 mM, Sigma-Aldrich) into 1.0 mL of sterile dH2O. Then, 10 μL staining mixture was added to each well and mixed thoroughly. The plates were incubated at room temperature in the dark for 15 minutes followed by plate reading at excitation wavelength at 485 nm and the fluorescence intensity at 535 nm (green emission) and 635 nm (red emission) in microplate reader (HTS 7000 plus Bio Assay Reader, PerkinElmer Inc., USA). With least-square fitting analysis, the regression equation and regression curve of the relationship between percentage of live and dead bacteria as shown in green/red fluorescence ratios was obtained. The regression equation was used to calculate the percentage of live cells in each well of the 96-well plate.
# Round body form and ten day old stationary phase (in brackets) B. burgdorferi culture was treated with 10 μg/mL drugs or their combinations for 7 days. Residual viable B. burgdorferi was calculated according to the regression equation and ratio of Green/Red fluorescence obtained by SYBR Green I/PI assay as described (Feng, Wang, Shi, et al., 2014). Direct microscopy counting was employed to rectify the results of the SYBR Green I/PI assay. […] Abbreviation: Dox, doxcycline; CefP, cefoperazone; DAP, daptomycin; CefM, cefmetazole; Scp, sulfachlorpyridazine; Art, artemisinin; Nft, nitrofurantoin.
# [6] = system: stationary phase B. burgdorferi persisters (strain B31); experiment: epifluorescence microscope counting after SYBR Green I/PI staining, FDA drug screen
# [7] = system: log phase E. coli culture; experiment: E. coli control, persister frequency by standard plate colony count assay; format: cell-based, Escherichia coli; settings: three hour log phase E. coli, 50 μg/mL amoxicillin for 3 hours
# [8] = system: log phase E. coli culture; experiment: E. coli control, persister frequency by microscope counting after SYBR Green I/PI staining; format: cell-based, Escherichia coli; settings: three hour log phase E. coli, 50 μg/mL amoxicillin for 3 hours
# [9] = system: B. burgdorferi (growing, strain B31); experiment: MIC determination, standard microdilution method; format: cell-based, Borrelia burgdorferi
# [10] = system: stationary phase B. burgdorferi persisters (strain B31); experiment: NCI compound library rescreen, epifluorescence microscope counting; settings: Borreliella burgdorferi, 168 h
# [11] = system: stationary phase B. burgdorferi persisters (strain B31); experiment: SYBR Green I/PI viability assay (plate reader), FDA-approved drug library screen; settings: for Ratio of Green/Red fluorescence, Primary screening / Ratio of Green/Red fluorescence, Rescreening (first column) / Ratio of Green/Red fluorescence, Rescreening (second column): 7 days, stationary phase
# [12] = system: round body form of B. burgdorferi; settings: 50 µM
# [13] = 10 μg/mL, 7 days treatment, then subculture
# [14] = Borreliella burgdorferi, 168 h, read-out: Residual viable cells (epifluorescence microscope counting)
# [15] = 50 μM, 7-day old stationary phase cells treated for 7 days
smiles,measurement,setting,value
CC1(C)S[C@@H]2[C@H](NC(=O)[C@H](N)c3ccc(O)cc3)C(=O)N2[C@H]1C(=O)O [Amoxicillin],viability at 50 µM,"[1]; Borreliella burgdorferi, 168 h, read-out: Residual viable cells (SYBR Green I/PI assay)",46%
same,"Ratios of green/red fluorescence, Primary screening","[1]; round body form, 50 μM, 7 days",6.53
same,"Ratios of green/red fluorescence, Rescreening (first column)","[1]; round body form, 50 μM, 7 days",6.59
same,"Ratios of green/red fluorescence, Rescreening (second column)","[1]; round body form, 50 μM, 7 days",6.52
same,G/R ratio immediately after treatment,"[2]; 10 μg/mL, 7 days",7.16
same,G/R ratio after 7 day subculture,[2]; [13],6.32
same,G/R ratio after 15 day subculture,[2]; [13],7.23
same,Spirochetes after 7 day subculture (microscope counting),[2]; [13],1 × 10^6
same,Spirochetes after 15 day subculture (microscope counting),[2]; [13],6 × 10^6
same,Spirochetes after 15 day subculture (microscope counting),"[2]; 10 μg/mL, 7 days treatment, then subculture, listed as amoxicillin",~5×10^6
same,viability at 10 µg/mL,[2]; [14],80%
same,Residual viable cells (SYBR Green I/PI assay),"[3]; 50 μM, seven day old stationary phase culture, 7 days",71%
same,viability at 20 µM,"[3]; Borreliella burgdorferi, 168 h, read-out: Residual viable cells (%) 20 μM (SYBR Green I/PI assay), 20 μM, seven day old stationary phase, 7 days",77%
same,"persister frequency (percentage of live cells after antibiotic treatment, in brackets)",[4]; 3-day log phase culture,(9.6%)
same,persister frequency (in brackets),[4]; 7-day stationary phase culture,(25%)
same,persister frequency (in brackets),[4]; 10-day stationary phase culture,(~27%)
same,viability at 10 µg/mL,[5],75%
same,viability at 50 µM,[6]; [14],76%
same,E. coli control Persister frequency (standard plate colony count assay),[7],0.9%
same,E. coli control Persister frequency (standard plate colony count assay),[7]; listed as amoxicillin,0.9%
same,E. coli control Persister frequency (epi-fluorescence microscope counting after SYBR Green I/PI staining),[8],4.4%
same,E. coli control Persister frequency (epi-fluorescence microscope counting after SYBR Green I/PI staining),[8]; listed as amoxicillin,4.4%
same,MIC,"[9]; Borreliella burgdorferi, growing B. burgdorferi, read-out: MIC",≤ 0.25 µg/mL
same,viability at 50 µM,[10]; read-out: Activity against persisters (residual viable cell percentage),77%
same,viability at 20 µM,[10]; read-out: Residual viable cells (%) 20 μM (epifluorescence microscope counting),77%
same,viability at 50 µM,[10]; read-out: Residual viable cells (%) 50 μM (epifluorescence microscope counting),77%
same,viability at 50 µM,[10]; read-out: Residual viable cells (epifluorescence microscope counting),77%
same,"Ratio of Green/Red fluorescence, Primary screening",[11]; 50 μM,7.98
same,"Ratio of Green/Red fluorescence, Rescreening (first column)",[11]; 50 μM,7.86
same,"Ratio of Green/Red fluorescence, Rescreening (second column)",[11]; 50 μM,7.82
same,viability at 50 µM,"[11]; Borreliella burgdorferi, 168 h, read-out: Residual viable cells (regression equation, SYBR Green I/PI assay)",76%
CO[C@@H]1[C@@H](O[C@@H]2O[C@H](C)[C@@H](O[C@H]3C[C@@](C)(O)[C@@H](OC(=O)CC(C)C)[C@H](C)O3)[C@H](N(C)C)[C@H]2O)[C@@H](CC=O)C[C@@H](C)C(=O)/C=C/[C@@H]2O[C@@H]2C[C@@H](C)OC(=O)C[C@H]1OC(C)=O [Carbomycin],Residual viable cells (epifluorescence microscope counting),[6]; [15],41%
same,"sensitivity of log phase / multiplying B. burgdorferi (words, FIG. 12)",[9]; MIC test,very sensitive
same,"Residual viable cells (regression equation, SYBR Green I/PI assay)",[11]; [15],37%
same,"Ratio of Green/Red fluorescence, Primary screening",[11]; 50 μM,6.37
same,"Ratio of Green/Red fluorescence, Rescreening (first column)",[11]; 50 μM,6.81
same,"Ratio of Green/Red fluorescence, Rescreening (second column)",[11]; 50 μM,6.32
same,Residual viable cells (SYBR Green I/PI assay),[12],43%
